In patent publication US11299715B2, “Use of iNOS inhibitors to increase viral yield in culture” (priority 2013, dated 2022):

Key:
[1] = tested on: rHSV-1 d27-1 (d27-1) vector; experiment: ATA-HSV protocol: rHSV-1 d27-1 vector yield in V27 cell supernatants; format: cell-based, HSV-1
Text: (§1) The wtHSV-1 KOS strain and the ICP27-deficient derivatives of the wtHSV-1 KOS strain: vectors d27-1 (Rice and Knipe, J. Virol. (1990) 64:1704-1715), rHSV-rep2/cap2 and rHSV-EGFP (Kang et al., Gene Ther. (2009) 16:229-239) and their producer ICP27-complementing V27 cell line were obtained from AGTC (Alachua, Fla.). The wtHSV-1 MacIntyre strain, purchased from Advanced Biotechnologies Inc. (ABI, Columbia Md.) and wtHSV-1 KOS strain were propagated in Vero, 293 or HeLa cell lines. Infectious vector particles were harvested 72 hr postinfection by recovering culture supernatant. The titers of HSV-1 stocks in DNase resistant particles/ml (DRP/ml) were determined by Taqman assay. Viral genomes within crude culture medium were quantified via treatment in the presence of DNase I (50 U/ml final; Promega) at 37° C. for 60 min, followed by proteinase K (Invitrogen) digestion (1 U/ml) at 50° C. for 60 min, and then denatured at 95° C. for 30 min. Linearized plasmid pZero 195 UL36 (obtained from AGTC, Inc., Alachua, Fla.) was used to generate standard curves.
(§2) ATA (Sigma-A1895 Aurintricarboxylic acid practical grade, ≥85% (titration), powder) stock solution was generated as 500 μM concentration in 100 mM sodium bicarbonate water solution. ATA stock solution was further diluted in DMEM+/−10% fetal bovine serum (FBS, Hyclone, Waltham, Mass.) into concentration ranges of […] ATA (8.5-21 μgATA/ml). The HSV-1 infection at multiplicity of infection of 0.15 (MOI=0.15) (typically 6×10^5 cells in a 6-well plate) was performed in 40% (⅖ vol) of the total final media volume for 1-2 hrs and the remaining media (60% or ⅗ of the total final volume) was added during the dilution step. The cells were then incubated 72 hours and supernatant harvested to perform forming units per milliliter (PFU/ml) and DRP/ml titer assays.
In order to test whether ATA could increase the rHSV-1 d27-1 (d27-1) vector yield in V27 cells, ATA was applied to the media during the infection (Step 1) or dilution steps (Step 2) (FIG. 2A). The d27-1 infection at MOI=0.15 was performed in ⅖ of the final media volume and the remaining ⅗ of the media was added during dilution step.
In order to determine which concentrations and conditions for ATA addition have impact on HSV yields, the following experiments were conducted. ATA at varying concentrations was added to V27 cultures infected with the HSV-1 d27-1 vectors in either six-well plates (FIG. 2B) or T150 flasks (FIG. 2C) in two steps as follows. In Step 1 of the protocol, V27 cells were infected with 0.15 MOI of the rHSV vector in ⅖ of the final volume of DMEM with 10% FBS and 0-60 μM ATA concentrations. Cells were cultured for 1-2 hours at 37° C. to complete Step 1. In Step 2, the concentration of ATA was reduced to a range between 12-24 μM by the addition of ⅗ of final media volume. Cells were cultured for 70-74 hours at 37° C. and the supernatant harvested. Viral titers were expressed as Dnase Resistant Particles (DRP/ml) or Plaque Forming Units (pfu/ml) per ml and were determined as described above.
In this experiment, V27 cells were seeded into six well plates the day prior to infection at 6×10^5 cells/well. HSV 2× infection solution was prepared as follows: HSV-1 d27.1 stock was added to DMEM (no FBS) at 2× titer that the cells would be infected at final MOI 0.15. Several 2×ATA solution combinations were prepared containing either 100 μM or 40 μM ATA in DMEM and without FBS or with 20% FBS.
HSV 2× infection solution was mixed equal volumes of either DMEM−/+20% FBS or desired 2×ATA solution−/+20% FBS, vortexed, and 1 ml of infectious inoculum per well was added in Step 1. If wells contained ATA in Step 1, the concentration was 50 μM and all wells were incubated for 1-2 hrs. In Step 2, additional 1.5 ml of DMEM combinations−/+40 μM ATA and −/+20% FBS were added. If wells contained ATA whether in Step 1 or Step 2, the final ATA concentration was 20 μM. […]

[2] = tested on: wtHSV-1 McIntyre strain; experiment: wtHSV-1 McIntyre strain propagation in 293, HeLa and Vero cells with ATA; format: cell-based, HSV-1
Text: as §1, §2
Supernatants containing virus were harvested after three days as described above. […] Finally, ATA also appeared to inhibit both types of HSV-1 viruses in HeLa cells. Two-way ANOVA; Bonferroni test; −ATA vs. +ATA: ***: p<0.001, ns: p>0.05; n=4 independent experiments.
For statistical calculations, a larger study with a set of ten independent experiments (n=10) was conducted in 6-well plates with or without ATA added during the infection step (Step 1) comparing replication-deficient d27-GFP and also wtHSV-1 McIntyre strain in order to investigate, whether ATA could increase the titer in the wtHSV-1 strain as well (FIG. 4B). ATA was added at […] to confluent cell monolayers, V27 cells for d27-1 or 293 cells for wtHSV-1 McIntyre, during the infection step (Step 1) and the cells were infected with vectors at MOI=0.15 while ATA was diluted 1 hr later to a final […] concentration.
In order to illuminate the ATA mechanism of action by human genome array and the fact that Vero and V27 are monkey-derived cell lines, wtHSV-1 propagation was tested in several human cell lines (FIGS. 4A-4B). A propagation of two wild type HSV-1 (wtHSV-1) strains, KOS and McIntyre, were compared in three cell lines: human embryonic kidney 293 (293 cells), human cervical cancer HeLa cells and African green monkey kidney epithelial Vero cells. The experiments were carried out in 10% FBS-containing media following the ATA I protocol scheme, where 50 μM ATA was supplemented during the infection step and further diluted to 20 μM ATA concentration (see Material and Methods).

[3] = serum-free media, ATA at Step 2, 20 μM final
[4] = serum-free media, ATA starting at 3 μM at Step 1

For `O=C(O)C1=CC(=C(c2ccc(O)c(C(=O)O)c2)c2ccc(O)c(C(=O)O)c2)C=CC1=O` [ATA, 5-((3-carboxy-4-hydroxyphenyl)(3-carboxy-4-oxo-2,5-cyclohexadien-1-ylidene)methyl)-2-hydroxybenzoic acid], the “d27-1 titer in supernatant (PFU/ml)” value ([1]; 50 μM ATA at infection step, 20 μM f.c., 72 h.p.i., control 1.4±0.2×10^7) was 1.2±0.3×10^8 PFU/ml, the “d27-1 titer in supernatant (DRP/ml)” value ([1]; 50 μM ATA at infection step, 20 μM f.c., 72 h.p.i., control 4.0±0.3×10^7) was 3.7±0.2×10^8 DRP/ml and the “increase of d27-1 titers in supernatant” value ([1]; 50 μM ATA at infection step, 20 μM f.c., harvest 72 h.p.i.) was “about 10 times”. For the same compound, the “Cytopathic effect (CPE) at the time of harvest” value ([1]; 72 hpi, V27 monolayers, 100% CPE in the absence of ATA) was 20-60%, the “HSV titers versus cultures without ATA” value ([1]; ATA added in Step 1 or Step 2, six-well plates and T150 flasks, 10% FBS) was “significantly higher” and the “HSV-1 plaque formation or cell lysis in V27 cell monolayers” value ([1]; ATA treatment) was “delayed”. The “DRP titer, ATA in serum-free media at dilution step (Step 2)” value [1, 3] was “reduced below control level”, the “PFU/ml titer, ATA in serum-free media at dilution step (Step 2)” value [1, 3] was “below detection” and the “DRP/ml titer, ATA in serum-free media at infection Step 1” value [1, 4] was “below the detection limit”. The “PFU/ml titer, ATA in serum-free media at infection Step 1” value [1, 4] was “below the detection limit”, the “d27-1 titers with ATA (DRP/ml)” value ([1]; summary statement) was ≥ 4×10^8 DRP/ml and the “d27-1 titers with ATA (PFU/ml)” value ([1]; summary statement) was “at least 1×10^8 PFU/ml”. The “increase of d27-1 yields in V27 cells supernatants” value ([1]; summary statement) was 3-5 times, the “wtHSV-1 McIntyre titers in 293 cells” value ([2]; 50 μM ATA at Step 1, 20 μM after Step 2, 293 cells) was “reached the highest titers” and the “propagation of HSV-1 McIntyre in HeLa cells” value ([2]; 50 μM ATA at Step 1, 20 μM after Step 2, HeLa cells) was “inhibit”. The “yield of wtHSV-1 McIntyre in Vero cells” value ([2]; 50 μM ATA at Step 1, 20 μM after Step 2, Vero cells, 10% FBS) was “increased”, the “wtHSV-1 McIntyre virus titer in 293 cells” value ([2]; 50 μM ATA at infection, diluted to 20 μM, 10% FBS, n=4, without ATA 1.4×10^8) was 1.2×10^9 DRP/ml and the “increase of wtHSV-1 McIntyre titer after ATA addition” value ([2]; 293 cells, 6-well plates, n=10, ATA 50 μM at Step 1, final 20 μM, MOI 0.15) was 9.1 times. The “wtHSV-1 McIntyre titer after ATA addition” value ([2]; 293 cells, n=10, ATA 50 μM at Step 1, final 20 μM, without ATA 3.3×10^8) was 1.0×10^9 DRP/ml, the “293 or Vero titers with ATA, McIntyre” value ([2]; summary statement) was “up to 1×10^9 DRP/ml” and the “increase of wt HSV-1 McIntyre yields” value ([2]; summary statement) was 1 log.
